From PubChem BioAssay (NCI)
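A five-concentration, 48-hour dose response in 96-well plates underlies each endpoint, interpolated linearly between surrounding concentrations. GI50: concentration for 50% inhibition of growth. At the TGI there is no net growth.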

Assays:
Assay in all cases: NCI anticancer screen, dose series, 48 h
HCC-2998 colon = tested on: HCC-2998 colon
SF-295 CNS = tested on: SF-295 CNS
SK-MEL-2 melanoma = tested on: SK-MEL-2 melanoma
OVCAR-8 ovarian = tested on: OVCAR-8 ovarian
UACC-62 melanoma = tested on: UACC-62 melanoma
IGROV1 ovarian = tested on: IGROV1 ovarian
RXF 393 renal = tested on: RXF 393 renal
T-47D breast = tested on: T-47D breast
NCI-H460 lung = tested on: NCI-H460 lung
DU-145 prostate = tested on: DU-145 prostate
SW-620 colon = tested on: SW-620 colon
KM12 colon = tested on: KM12 colon
LOX IMVI melanoma = tested on: LOX IMVI melanoma
CAKI-1 renal = tested on: CAKI-1 renal
NCI/ADR-RES ovarian = tested on: NCI/ADR-RES ovarian
SF-539 CNS = tested on: SF-539 CNS
SR leukemia = tested on: SR leukemia
HS 578T breast = tested on: HS 578T breast
CCRF-CEM leukemia = tested on: CCRF-CEM leukemia
NCI-H226 lung = tested on: NCI-H226 lung
MOLT-4 leukemia = tested on: MOLT-4 leukemia
MDA-MB-435 = tested on: MDA-MB-435
MDA-MB-231 breast = tested on: MDA-MB-231 breast
NCI-H23 lung = tested on: NCI-H23 lung
SK-OV-3 ovarian = tested on: SK-OV-3 ovarian
HCT-116 colon = tested on: HCT-116 colon
OVCAR-4 ovarian = tested on: OVCAR-4 ovarian
A549 NSCLC = tested on: A549 NSCLC
SNB-19 CNS = tested on: SNB-19 CNS
OVCAR-3 ovarian = tested on: OVCAR-3 ovarian
SK-MEL-28 melanoma = tested on: SK-MEL-28 melanoma
RPMI-8226 leukemia = tested on: RPMI-8226 leukemia
A498 renal = tested on: A498 renal
HL-60(TB) leukemia = tested on: HL-60(TB) leukemia
UACC-257 melanoma = tested on: UACC-257 melanoma
TK-10 renal = tested on: TK-10 renal
COLO 205 colon = tested on: COLO 205 colon
NCI-H522 lung = tested on: NCI-H522 lung
MCF7 breast = tested on: MCF7 breast
SNB-75 CNS = tested on: SNB-75 CNS
EKVX NSCLC = tested on: EKVX NSCLC
MALME-3M melanoma = tested on: MALME-3M melanoma
786-0 renal = tested on: 786-0 renal
U251 CNS = tested on: U251 CNS
OVCAR-5 ovarian = tested on: OVCAR-5 ovarian
HCT-15 colon = tested on: HCT-15 colon
M14 melanoma = tested on: M14 melanoma
SK-MEL-5 melanoma = tested on: SK-MEL-5 melanoma
UO-31 renal = tested on: UO-31 renal
SF-268 CNS = tested on: SF-268 CNS
BT-549 breast = tested on: BT-549 breast
HOP-62 NSCLC = tested on: HOP-62 NSCLC
PC-3 prostate = tested on: PC-3 prostate
SN12C renal = tested on: SN12C renal
K-562 leukemia = tested on: K-562 leukemia
ACHN renal = tested on: ACHN renal

Compound: ClCc1ccccc1Cn1cnc2c(Cl)nc(Cl)nc21
- GI50 (HCC-2998 colon): 315 nM
- TGI (HCC-2998 colon): 1320 nM
- GI50 (SF-295 CNS): 1580 nM
- TGI (SF-295 CNS): 3110 nM
- GI50 (SK-MEL-2 melanoma): 2250 nM
- TGI (SK-MEL-2 melanoma): 4720 nM
- GI50 (OVCAR-8 ovarian): 1440 nM
- TGI (OVCAR-8 ovarian): 2980 nM
- GI50 (UACC-62 melanoma): 408 nM
- TGI (UACC-62 melanoma): 865 nM
- GI50 (IGROV1 ovarian): 996 nM
- TGI (IGROV1 ovarian): 2530 nM
- GI50 (RXF 393 renal): 1460 nM
- TGI (RXF 393 renal): 3010 nM
- GI50 (T-47D breast): 1990 nM
- TGI (T-47D breast): 5460 nM
- GI50 (NCI-H460 lung): 2290 nM
- TGI (NCI-H460 lung): 7150 nM
- GI50 (DU-145 prostate): 207 nM
- TGI (DU-145 prostate): 743 nM
- GI50 (SW-620 colon): < 39.2 nM
- TGI (SW-620 colon): 64.7 nM
- GI50 (KM12 colon): 1480 nM
- TGI (KM12 colon): 2950 nM
- GI50 (LOX IMVI melanoma): < 39.5 nM
- TGI (LOX IMVI melanoma): 169 nM
- GI50 (CAKI-1 renal): 728 nM
- TGI (CAKI-1 renal): 1590 nM
- GI50 (NCI/ADR-RES ovarian): 552 nM
- TGI (NCI/ADR-RES ovarian): 1330 nM
- GI50 (SF-539 CNS): 170 nM
- TGI (SF-539 CNS): 467 nM
- GI50 (SR leukemia): 1770 nM
- TGI (SR leukemia): 4930 nM
- GI50 (HS 578T breast): 1190 nM
- TGI (HS 578T breast): 3550 nM
- GI50 (CCRF-CEM leukemia): 31.3 nM
- TGI (CCRF-CEM leukemia): 93.9 nM
- GI50 (NCI-H226 lung): 603 nM
- TGI (NCI-H226 lung): 1590 nM
- GI50 (MOLT-4 leukemia): 574 nM
- TGI (MOLT-4 leukemia): 1590 nM
- GI50 (MDA-MB-435): 1640 nM
- TGI (MDA-MB-435): 3270 nM
- TGI (MDA-MB-231 breast): 295 nM
- GI50 (NCI-H23 lung): 485 nM
- TGI (NCI-H23 lung): 1020 nM
- GI50 (SK-OV-3 ovarian): 1950 nM
- TGI (SK-OV-3 ovarian): 3700 nM
- GI50 (HCT-116 colon): 60.5 nM
- TGI (HCT-116 colon): 188 nM
- GI50 (OVCAR-4 ovarian): 1030 nM
- TGI (OVCAR-4 ovarian): 2550 nM
- GI50 (A549 NSCLC): 2820 nM
- TGI (A549 NSCLC): 8800 nM
- GI50 (SNB-19 CNS): 1040 nM
- TGI (SNB-19 CNS): 2240 nM
- GI50 (OVCAR-3 ovarian): 547 nM
- TGI (OVCAR-3 ovarian): 1170 nM
- GI50 (SK-MEL-28 melanoma): 942 nM
- TGI (SK-MEL-28 melanoma): 2480 nM
- GI50 (RPMI-8226 leukemia): 139 nM
- TGI (RPMI-8226 leukemia): 501 nM
- GI50 (A498 renal): 2050 nM
- TGI (A498 renal): 4000 nM
- GI50 (HL-60(TB) leukemia): 181 nM
- TGI (HL-60(TB) leukemia): 1350 nM
- GI50 (UACC-257 melanoma): 1900 nM
- TGI (UACC-257 melanoma): 4000 nM
- GI50 (TK-10 renal): 1020 nM
- TGI (TK-10 renal): 2490 nM
- GI50 (COLO 205 colon): 163 nM
- TGI (COLO 205 colon): 362 nM
- GI50 (NCI-H522 lung): 964 nM
- TGI (NCI-H522 lung): 2600 nM
- GI50 (MCF7 breast): 118 nM
- TGI (MCF7 breast): > 100000 nM
- GI50 (SNB-75 CNS): 892 nM
- TGI (SNB-75 CNS): 2140 nM
- GI50 (EKVX NSCLC): 332 nM
- TGI (EKVX NSCLC): 811 nM
- GI50 (MALME-3M melanoma): 1220 nM
- TGI (MALME-3M melanoma): 3590 nM
- GI50 (786-0 renal): 167 nM
- TGI (786-0 renal): 634 nM
- GI50 (U251 CNS): 222 nM
- TGI (U251 CNS): 602 nM
- GI50 (OVCAR-5 ovarian): 471 nM
- TGI (OVCAR-5 ovarian): 1210 nM
- TGI (HCT-15 colon): 139 nM
- GI50 (M14 melanoma): 453 nM
- TGI (M14 melanoma): 1070 nM
- GI50 (SK-MEL-5 melanoma): 104 nM
- TGI (SK-MEL-5 melanoma): 501 nM
- GI50 (UO-31 renal): 379 nM
- TGI (UO-31 renal): 1440 nM
- GI50 (SF-268 CNS): 115 nM
- TGI (SF-268 CNS): 556 nM
- GI50 (BT-549 breast): 460 nM
- TGI (BT-549 breast): 1500 nM
- GI50 (HOP-62 NSCLC): 1380 nM
- TGI (HOP-62 NSCLC): 2780 nM
- GI50 (PC-3 prostate): 425 nM
- TGI (PC-3 prostate): 1610 nM
- GI50 (SN12C renal): 362 nM
- TGI (SN12C renal): 1020 nM
- GI50 (K-562 leukemia): 189 nM
- TGI (K-562 leukemia): 1940 nM
- GI50 (ACHN renal): 78.5 nM
- TGI (ACHN renal): 316 nM
